According to ChEMBL document CHEMBL1914374, “Effect of different C3-aryl substituents on the antioxidant activity of 4-hydroxycoumarin derivatives” (Bioorg Med Chem, 2011):

Assays:
Type in all cases: functional
[1] = test system: Radical scavenging activity; assay: Antioxidant activity assessed as DPPH free radical scavenging activity after 10 mins by UV-Vis spectrophotometric analysis
[2] = Antioxidant activity assessed as trolox equivalents of ABTS radical scavenging activity by TEAC assay
[3] = Antioxidant activity in soybean lipoxygenase-induced beta-carotene-linoleic acid co-oxidation assessed as inhibition of beta-carotene bleaching after 10 mins relative to control; parameters: scale not given: the % may be the effect or the level left

Row | SMILES | EC50 [1] [mM] | Activity [2] [µmolequiv/g] | Activity [3] [%/mmol]
1 | O=c1oc2ccccc2c(O)c1-c1ccc(Cl)cc1 | 4.15 | 50 | 5.94
2 | COc1ccccc1-c1c(O)c2ccccc2oc1=O | 1.92 | 567 | 25.5
3 | O=c1oc2ccccc2c(O)c1-c1ccccc1Cl | 4.14 | 50 | –
4 | O=c1cc(O)c2ccccc2o1 [4-HYDROXYCOUMARINS] | 3.8 | 186 | 2.07
5 | COc1ccc(-c2c(O)c3ccccc3oc2=O)cc1 | 0.54 | 699 | 23.1
6 | O=c1oc2ccccc2c(O)c1-c1ccccc1 | 4.19 | 46.6 | 5.79
7 | Cc1cc(=O)oc2cc(O)ccc12 [HYMECROMONE] | 8.9 | 54.8 | < 0.5
8 | O=c1oc2ccccc2c(O)c1-c1cccc2ccccc12 | 6.41 | 56.8 | 4.26
